Results on 3 compounds are retold here after patent US20230165979A1, “COPPER-CONTAINING THERAGNOSTIC COMPOSITIONS AND METHODS OF USE” (Cornell University, priority 2020, published 2023).

Data set [1] is described as follows: Plasma stability. It is filed as in vitro ADME, human. The note with it: 37° C. Here is the method: The plasma stability of [^67Cu]Cu-RPS-085 was determined according to previously described methods (Alt, et al., Mol Pharmaceutics. 2014; 11: 2855-63). Briefly, frozen human plasma was purchased from Sigma Aldrich (USA), thawed at 37° C., and 200 μL aliquots were transferred to Eppendorf tubes. A 100 μL aliquot of [^67Cu]Cu-RPS-085 in 10% EtOH/saline was added to each tube, and the mixture was shaken at 300 rpm for 24 h at 37° C. on an Eppendorf ThermoMixer® C (VWR, USA). The experiment was performed in triplicate. The proteins were precipitated by addition of 600 μL acetonitrile. The samples were centrifuged at 13500 rpm for 3 min in an Eppendorf 5424-R Centrifuge. The supernatant was analyzed by analytical reverse phase (radio)HPLC as described above. After 24 h incubation in human plasma, [^67Cu]Cu-RPS-085 was 97.4±0.4% intact. The lone radiochemical impurity was an unidentified fragment of the parent compound.

Data set [2] is described as follows: Stability of the reformulated radioligand solution at 25° C. It is filed as physicochemical. The note with it: after reformulation, radioHPLC. Here is the method:
The stability of the reformulated [^64Cu]Cu-RPS-085 solution was determined in triplicate at 25° C. Three 1 mL samples at a radioactivity concentration of approximately 10 MBq/mL and radiochemical purity >99% were transferred to Eppendorf tubes (VWR, USA). The samples were incubated for 24 h at 25° C. in an Eppendorf ThermoMixer® C (VWR, USA). Radiochemical purity was determined by analytical reverse phase (radio)HPLC and expressed as a fraction of the purity of the sample prior to incubation. After reformulation, [^64Cu]Cu-RPS-085 was stable at room temperature for more than 24 h.

The subject of data set [3] is LNCaP xenograft tumors. Description: microPET/CT imaging in LNCaP xenograft mouse model. It is filed as in vivo, male BALB/c athymic nu/nu mice. How it is done: (§1) All animal studies were approved by the Institutional Animal Care and Use Committee of Weill Cornell Medicine and were undertaken in accordance with the guidelines set forth by the USPHS Policy on Humane Care and Use of Laboratory Animals. The mice were housed under standard conditions in approved facilities with 12 h light/dark cycles. Food and water was provided ad libitum throughout the course of the studies. Male BALB/c athymic nu/nu mice were purchased from the Jackson Laboratory (USA). Prior to inoculation, LNCaP cells were suspended at a density of 4×10^7 cells/mL in a 1:1 mixture of PBS (VWR, USA):Matrigel (BD Biosciences, USA). Each mouse was injected subcutaneously in the left flank with 0.25 mL of the cell suspension. The animals were monitored twice weekly until palpable tumors emerged.
When tumor size was in the range 200-500 mm^3, mice (n=4) were administered 21.2±0.5 MBq [^64Cu]Cu-RPS-085 by intravenous injection. The total mass dose received by each animal was approximately 300 ng (185 pmol). The mice were imaged under isoflurane anesthesia at 1 h, 3 h, 6 h, 24 h, and 48 h post injection (p.i.) by microPET/CT (Inveon™; Siemens Medical Solutions, USA). Total acquisition time was 30 min. A CT scan was obtained immediately before the PET acquisition for both anatomical co-registration and attenuation correction. Images were reconstructed using the Inveon™ software provided by the vendor.

The subject of data set [4] is LNCaP xenografts. In words: Tissue biodistribution in mice bearing LNCaP xenografts. The note with it: for activity in kidneys / tumor uptake: i.v., ±SEM. It counts as in vivo, male Balb/C nu/nu mice. How it is done:
as §1
(§2) When tumor size reached approximately 200 mm^3, mice (n=4/time point) were administered 3.8±0.1 MBq [^64Cu]Cu-RPS-085 or 0.8±0.005 MBq [^67Cu]Cu-RPS-085 by intravenous injection. The total mass dose received by each animal was approximately 50 ng (31 pmol) and approximately 28 ng (17 pmol) for the [^64Cu]Cu-RPS-085 and [^67Cu]Cu-RPS-085 studies, respectively. The mice were sacrificed at 4 h, 24 h, or 48 h p.i. ([^64Cu]Cu-RPS-085) or 4 h, 24 h, and 96 h ([^67Cu]Cu-RPS-085). A blood sample was collected, and the following tissues were collected and weighed wet using a digital balance: heart, lungs, liver, stomach, small intestine, large intestine, spleen, pancreas, kidneys, muscle, bone, and tumor. The tissues were counted on a Wizard2 Automatic Gamma Counter (Perkin Elmer, USA) against a 1% injected dose standard. The counts were corrected for decay and for activity injected, and tissue uptake was expressed as percent injected dose per gram (% ID/g). Standard error of the mean (SEM) was calculated for each data point. Statistical analyses were performed using an unpaired t test with GraphPad Prism software. A P value of less than 0.05 was considered significant. The concentration of [67Cu]Cu-RPS-085 found in blood, heart, lungs, liver, small intestine, large intestine, stomach, spleen, pancreas, kidneys, muscle, and bone at 4 h, 24 h, and 96 h, post injection (n=4 per time point) is shown in Table 1 below. Published values for [177Lu]Lu-RPS-063 are shown for comparison; all concentrations are expressed as percent injected dose per organ.

For data set [5], the system named is LNCaP tumors. In words: Published biodistribution of 177Lu-labeled comparison ligands in the same animal model. The note with it: over 96 h p.i.; from previously determined values. It counts as in vivo, mice. Here is the method:
as §2, with “The concentration of [67Cu]Cu-RPS-085 found in blood, heart, lungs, liver, small intestine, large intestine, stomach, spleen, pancreas, kidneys, muscle, and bone at 4 h, 24 h, and 96 h, post injection (n=4 per time point) is shown in Table 1 below.” left out

For data set [6], the system named is LNCaP tumors. The note with it: over 96 h p.i.; same animal model; previously determined; cited from earlier work.

Turning to `CC12CNCCNCC(NC(=O)CCCC(=O)NCCCC[C@H](NC(=O)CCOCCOCCOCCn3cc(-c4cccc(NC(=O)NCCCC[C@H](NC(=O)N[C@@H](CCC(=O)O)C(=O)O)C(=O)O)c4)nn3)C(=O)N[C@@H](CCCCNC(=O)Cc3ccc(I)cc3)C(=O)O)(CNCCNC1)C[N@]1CC[N@](C2)[Cu]1` [[^64/67Cu]Cu-RPS-085], the “time stable in human plasma” value in data set [1] is “more than 24 h”. Moreover, in data set [2], the “time stable in solution at room temperature” value was “more than 24 h”.
With `CC12CNCCNCC(NC(=O)CCCC(=O)NCCCC[C@H](NC(=O)CCOCCOCCOCCn3cc(-c4cccc(NC(=O)NCCCC[C@H](NC(=O)N[C@@H](CCC(=O)O)C(=O)O)C(=O)O)c4)nn3)C(=O)N[C@@H](CCCCNC(=O)Cc3ccc(I)cc3)C(=O)O)(CNCCNC1)CNCCNC2.[64Cu+2]` [[^64Cu]Cu-RPS-085], in data set [3] (microPET/CT), the background tissue activity entry is given as “low”, the “primary route of excretion” value is given as “Renal clearance” and the “time by which only tumors could be visualized” value is reported as no more than 24 h. Moreover, in data set [3] (mouse, in vivo), the “time by which uptake in tumors exceeded kidneys” value is listed as no more than 6 h p.i and the “time of greatest activity in the tumor” value is listed as 3 h p.i. Further, the “activity in the tumor over time” value in data set [3] (over the 48 h imaging window, semi-quantitative, ROIs) is recorded as “virtually stable”. In data set [4] (4 h p.i.), the tumor-to-blood ratio is recorded as 230±33, the tumor-to-kidney ratio is reported as 0.9±0.2, the activity in kidneys was determined as 13.7±2.3 % ID/g and the tumor uptake is 12.9±1.4 % ID/g. Moreover, in data set [4] (24 h p.i.), the tumor-to-kidney ratio came to 3.4±0.7, the activity in kidneys is given as 2.4±0.4 % ID/g and the tumor uptake is listed as 8.3±0.8 % ID/g. Further, in data set [4] (48 h p.i.), the tumor-to-kidney ratio was determined as 6.1±0.8, the activity in kidneys was found to be 1.6±0.1 % ID/g and the tumor uptake is on record as 9.8±1.3 % ID/g. In addition, in data set [4] (all observed time points), the tumor-to-muscle ratio entry is given as “greater than 500”. The “activity in all other tissues including liver” value in data set [4] (all time points (4, 24, 48 h p.i.)) was “less than 0.5 % ID/g”. In addition, in data set [4] (subsequently (after 4 h p.i.)), the tumor-to-blood ratio result is given as “exceeded 400”. Besides, the “time stable in solution at room temperature” value in data set [2] is “more than 24 h”.
On to [^177Lu]Lu-PSMA-617, for which, in data set [5], the Ãtumor/Ãkidney ratio came to 2.1. Moreover, in data set [6], the “accumulated activity (Ã) in LNCaP tumors” value was 544 (% ID/g)·h and the “accumulated activity (Ã) in kidneys” value is listed as 260 (% ID/g)·h.
